Each compound was assayed on NF-kB transcriptional activity in HEK-293-NF-kB-Luc cell line overexpressing MALT1 (assay: NF-kB reporter assay (luciferase, MALT1 stably overexpressed)). Conditions: Homo sapiens, 24 h, HEK-293-NF-kB-Luc cells stably overexpressing MALT1, 24 h treatment, Bright Glo luminescence; read-out: NF-kB inhibition IC50.
Assay type: cell-based
Description: The NF-⇐B reporter assay was performed to screen for MALT1 inhibition mediated reduction in the NF-⇐B transcriptional activity. For this purpose, MALT1 was stably overexpressed in HEK-293—NF-⇐B-Luc cell line. Cells were seeded in poly-D-lysine coated 96-well plates in a culture medium containing the selection markers (DMEM+10% FBS+50 |g/ml Hygromycin+500 |g/ml Geniticin) and allowed to adhere overnight. On the following day, cells were treated with various concentrations of test compounds for 24 h. After 24 h of treatment with test compounds, media was removed from each well and Bright Glo™ (Promega, USA) substrate was added and incubated for further 10 min at ambient temperature. Luminescence was measured for detection of NF-⇐B reporter activity. RLUs (Relative Luminescence Units) were directly proportional to the NF-⇐B activity. % inhibition of NF-⇐B activity was calculated relative to the samples containing media with 0.1% DMSO alone as per the following formula
With `CCOC(C)c1c(NC(=O)Nc2cc(Cl)c(-n3nccn3)nc2OC)cnc2sc(C)nc12` (single isomer, unassigned) [Compound 166b, 1-(5-Chloro-2-methoxy-6-(2H-1,2,3-triazol-2-yl)pyridin-3-yl)-3-(7-(1-ethoxyethyl)-2-methylthiazolo[5,4-b]pyridin-6-yl)urea] the IC50 was 1 to 100 nM. For `COC(C)c1c(NC(=O)Nc2ccc(-c3ncccn3)c(Cl)c2)cnc2sc(C)nc12` (single isomer, unassigned) [Compound 202, (S) or (R)-1-(3-Chloro-4-(pyrimidin-2-yl)phenyl)-3-(7-(1-methoxyethyl)-2-methylthiazolo[5,4-b]pyridin-6-yl)urea], the IC50 was 1 to 100 nM. `COC(C)c1c(NC(=O)Nc2ccc(-n3nccn3)c(C(F)F)c2)cnc2sc(C)nc12` (single isomer, unassigned) [Compound 207a, (R) or (S)-1-(3-(Difluoromethyl)-4-(2H-1,2,3-triazol-2-yl)phenyl)-3-(7-(1-methoxyethyl)-2-methylthiazolo[5,4-b]pyridin-6-yl)urea] showed an IC50 of 1 to 100 nM. Work on `CCC(c1c(NC(=O)Nc2cnc(-n3nccn3)c(Cl)c2)cnc2sc(C)nc12)N(C)C` (single isomer, unassigned) [Compound 227b, 1-(5-Chloro-6-(2H-1,2,3-triazol-2-yl)pyridin-3-yl)-3-(7-(1-(dimethylamino)propyl)-2-methylthiazolo[5,4-b]pyridin-6-yl)urea] yielded an IC50 of 1 to 100 nM. With `Cc1nc2c(C3CC3)c(NC(=O)Nc3ccnc(C#N)c3)cnc2s1` [Compound 12, 1-(2-Cyanopyridin-4-yl)-3-(7-cyclopropyl-2-methylthiazolo[5,4-b]pyridin-6-yl)urea] the IC50 was 501 to 1500 nM. For `COCC(C)N(C)c1c(NC(=O)Nc2cnc(-n3nccn3)c(Cl)c2)cnc2sc(C)nc12` (centres unmarked) [Compound 53a, 1-(5-Chloro-6-(2H-1,2,3-triazol-2-yl)pyridin-3-yl)-3-(7-((1-methoxypropan-2-yl)(methyl)amino)-2-methylthiazolo[5,4-b]pyridin-6-yl)urea], the IC50 was 1 to 100 nM. With `COc1ncc(NC(=O)Nc2cnc3sc(C)nc3c2C2=CCOCC2)cc1Cl` [Compound 58, 1-(5-Chloro-6-methoxypyridin-3-yl)-3-(7-(3,6-dihydro-2H-pyran-4-yl)-2-methylthiazolo[5,4-b]pyridin-6-yl)urea] the IC50 was 501 to 1500 nM. For `COc1ncc(NC(=O)Nc2cnc3sc(C)nc3c2C2CC2)cc1C#N` [Compound 62, 1-(5-Cyano-6-methoxypyridin-3-yl)-3-(7-cyclopropyl-2-methylthiazolo[5,4-b]pyridin-6-yl)urea], the IC50 was 101 to 500 nM. `Cc1nc2c(C3CC3)c(NC(=O)Nc3ccc(-c4nnco4)c(Cl)c3)cnc2s1` [Compound 63, 1-(3-Chloro-4-(1,3,4-oxadiazol-2-yl)phenyl)-3-(7-cyclopropyl-2-methylthiazolo[5,4-b]pyridin-6-yl)urea] showed an IC50 of 101 to 500 nM. `COCC1(c2c(NC(=O)Nc3ccc(-n4nccn4)c(Cl)c3)cnc3sc(C)nc23)CC1` [Compound 64, 1-(3-Chloro-4-(2H-1,2,3-triazol-2-yl)phenyl)-3-(7-(1-(methoxymethyl)cyclopropyl)-2-methylthiazolo[5,4-b]pyridin-6-yl)urea] gave an IC50 of 101 to 500 nM. `Cc1nc2c(N3CCCOCC3)c(NC(=O)Nc3cnc(-n4nccn4)c(Cl)c3)cnc2s1` [Compound 67, 1-(5-Chloro-6-(2H-1,2,3-triazol-2-yl)pyridin-3-yl)-3-(2-methyl-7-(1,4-oxazepan-4-yl)thiazolo[5,4-b]pyridin-6-yl)urea] was tested, and the IC50 was 101 to 500 nM. Compound `COCCN(c1c(NC(=O)Nc2ccc(-n3nccn3)c(Cl)c2)cnc2sc(C)nc12)C1CC1` [Compound 68, 1-(3-Chloro-4-(2H-1,2,3-triazol-2-yl)phenyl)-3-(7-(cyclopropyl(2-methoxyethyl)amino)-2-methylthiazolo[5,4-b]pyridin-6-yl)urea] has an IC50 of 101 to 500 nM. `COc1nc(-n2nccn2)c(Cl)cc1NC(=O)Nc1cnc2sc(C)nc2c1C(OC)C(C)C` (centres unmarked) [Compound 81a, 1-(5-Chloro-2-methoxy-6-(2H-1,2,3-triazol-2-yl)pyridin-3-yl)-3-(7-(1-methoxy-2-methylpropyl)-2-methylthiazolo[5,4-b]pyridin-6-yl)urea] showed an IC50 of 1 to 100 nM. `COC(c1ccccc1)c1c(NC(=O)Nc2ccc(-n3nccn3)c(Cl)c2)cnc2sc(C)nc12` (centres unmarked) [Compound 82b, 1-(3-Chloro-4-(2H-1,2,3-triazol-2-yl)phenyl)-3-(7-(methoxy(phenyl)methyl)-2-methylthiazolo[5,4-b]pyridin-6-yl)urea] was tested, and the IC50 was 101 to 500 nM. With `COc1nc(-n2nccn2)c(C(F)(F)F)cc1NC(=O)Nc1cnc2sc(C)nc2c1C(C)OC` (centres unmarked) [Compound 88a, 1-(2-Methoxy-6-(2H-1,2,3-triazol-2-yl)-5-(trifluoromethyl)pyridin-3-yl)-3-(7-(1-methoxyethyl)-2-methylthiazolo[5,4-b]pyridin-6-yl)urea] the IC50 was 1 to 100 nM. Work on `Cc1nc2c(N(C)C3CC3)c(NC(=O)Nc3cnc(-n4nccn4)c(C(F)(F)F)c3)cnc2s1` [Compound 100, 1-(6-(2H-1,2,3-Triazol-2-yl)-5-(trifluoromethyl)pyridin-3-yl)-3-(7-(cyclopropyl(methyl)amino)-2-methylthiazolo[5,4-b]pyridin-6-yl)urea] yielded an IC50 of 1 to 100 nM. `Cc1nc2c(C3(CO)CC3)c(NC(=O)Nc3cnc(-n4nccn4)c(Cl)c3)cnc2s1` [Compound 105, 1-(5-Chloro-6-(2H-1,2,3-triazol-2-yl)pyridin-3-yl)-3-(7-(1-(hydroxymethyl)cyclopropyl)-2-methylthiazolo[5,4-b]pyridin-6-yl)urea] gave an IC50 of 1 to 100 nM. Work on `COc1ncc(NC(=O)Nc2cnc3sc(C)nc3c2C2(C)CC2)cc1Cl` [Compound 117, 1-(5-Chloro-6-methoxypyridin-3-yl)-3-(2-methyl-7-(1-methylcyclopropyl)thiazolo[5,4-b]pyridin-6-yl)urea] yielded an IC50 of 1 to 100 nM. Work on `Cc1ncn(-c2ccc(NC(=O)Nc3cnc4sc(C)nc4c3C3CC3)cc2Cl)n1` [Compound 173, 1-(3-Chloro-4-(3-methyl-1H-1,2,4-triazol-1-yl)phenyl)-3-(7-cyclopropyl-2-methylthiazolo[5,4-b]pyridin-6-yl)urea] yielded an IC50 of 501 to 1500 nM. For `Cc1nc2c(C3CC3)c(NC(=O)Nc3ccc(-n4ncnc4C)c(Cl)c3)cnc2s1` [Compound 174, 1-(3-Chloro-4-(5-methyl-1H-1,2,4-triazol-1-yl)phenyl)-3-(7-cyclopropyl-2-methylthiazolo[5,4-b]pyridin-6-yl)urea], the IC50 was 501 to 1500 nM. For `COc1ncc(NC(=O)Nc2cnc3sc(C)nc3c2C2CC2)cc1Br` [Compound 175, 1-(5-Bromo-6-methoxypyridin-3-yl)-3-(7-cyclopropyl-2-methylthiazolo[5,4-b]pyridin-6-yl)urea], the IC50 was 501 to 1500 nM. With `Cc1nc2c(C3(C)CC3)c(NC(=O)Nc3cnc(-n4nccn4)c(C(F)(F)F)c3)cnc2s1` [Compound 177, 1-(6-(2H-1,2,3-triazol-2-yl)-5-(trifluoromethyl)pyridin-3-yl)-3-(2-methyl-7-(1-methyleyelopropyl)thiazolo[5,4-b]pyridin-6-yl)urea] the IC50 was 1 to 100 nM. Compound `COc1nc(-n2nccn2)c(Cl)cc1NC(=O)Nc1cnc2sc(C)nc2c1C1(C)CC1` [Compound 178, 1-(5-Chloro-2-methoxy-6-(2H-1,2,3-triazol-2-yl)pyridin-3-yl)-3-(2-methyl-7-(1-methyleyelopropyl)thiazolo[5,4-b]pyridin-6-yl)urea] has an IC50 of 1 to 100 nM.

Reference: patent publication US20190275012A9, “SUBSTITUTED THIAZOLO-PYRIDINE COMPOUNDS AS MALT1 INHIBITORS” (Lupin Limited, priority 2016, published 2019)
